Like-named read-outs stand apart in the source and are kept apart here.
What was measured:
[1] = molecular target: T1, Bombyx mori EcR (VP16 fusion, switch construct CVBE) with 6XEcRE LacZ reporter (Bombyx mori, UniProt P49881); test: Z3 assay: β-galactosidase (LacZ) reporter gene fold induction in stably transformed human 293 kidney cells (clone Z3); format: cell-based
T1 construct: expressed in transfected cells; host or cells: Human 293 kidney (HEK-293) cells, retrovirally infected, clone Z3
T1 sequence (P49881 86-606 limits assumed): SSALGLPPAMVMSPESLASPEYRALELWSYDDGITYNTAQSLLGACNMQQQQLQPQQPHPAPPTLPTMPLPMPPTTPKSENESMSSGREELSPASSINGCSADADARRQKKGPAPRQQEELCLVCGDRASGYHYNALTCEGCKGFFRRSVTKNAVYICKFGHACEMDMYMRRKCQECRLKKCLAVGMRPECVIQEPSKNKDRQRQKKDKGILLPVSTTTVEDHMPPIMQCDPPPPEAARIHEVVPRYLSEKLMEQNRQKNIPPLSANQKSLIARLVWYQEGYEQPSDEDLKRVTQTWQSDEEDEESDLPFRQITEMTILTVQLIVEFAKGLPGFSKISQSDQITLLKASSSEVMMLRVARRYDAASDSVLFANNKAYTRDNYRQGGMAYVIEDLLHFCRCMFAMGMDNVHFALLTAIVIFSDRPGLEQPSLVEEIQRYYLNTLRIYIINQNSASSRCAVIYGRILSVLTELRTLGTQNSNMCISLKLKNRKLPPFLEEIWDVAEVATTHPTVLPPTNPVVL
T1 sequence (P19793 1-462 partner): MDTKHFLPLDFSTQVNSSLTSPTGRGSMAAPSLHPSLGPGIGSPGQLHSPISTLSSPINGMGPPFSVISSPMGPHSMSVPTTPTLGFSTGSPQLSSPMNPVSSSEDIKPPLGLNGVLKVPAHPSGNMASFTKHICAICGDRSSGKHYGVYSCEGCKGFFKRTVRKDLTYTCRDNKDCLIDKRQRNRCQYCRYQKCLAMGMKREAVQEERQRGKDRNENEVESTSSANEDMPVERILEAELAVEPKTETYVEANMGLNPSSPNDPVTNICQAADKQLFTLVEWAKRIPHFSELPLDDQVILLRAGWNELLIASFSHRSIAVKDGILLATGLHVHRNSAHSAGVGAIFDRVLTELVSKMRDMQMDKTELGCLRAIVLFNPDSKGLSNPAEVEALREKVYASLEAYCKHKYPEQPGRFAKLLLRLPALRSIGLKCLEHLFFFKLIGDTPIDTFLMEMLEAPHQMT
Source text: Dr. F. Gage provided a population of stably transformed cells containing CVBE and 6XEcRE as described in Suhr, S. T., Gil, E. B., Senut M. C., Gage, F. H. (1998) Proc. Natl. Acad. Sci. USA 95, 7999-804. Human 293 kidney cells, also referred to as HEK-293 cells, were sequentially infected with retroviral vectors encoding first the switch construct CVBE, and subsequently the reporter construct 6XEcRE Lac Z. The switch construct contained the coding sequence for amino acids 26-546 from Bombyx mori EcR (BE) (Iatrou) inserted in frame and downstream of the VP16 transactivation domain (VBE). A synthetic ATG start codon was placed under the control of cytomegalovirus (CVBE) immediate early promoter and flanked by long terminal repeats (LTR). The reporter construct contained six copies of the ecdysone response element (EcRE) binding site placed upstream of LacZ and flanked on both sides with LTR sequences (6XEcRE).
Dilution cloning was used to isolate individual clones. Clones were selected using 450 ug/mL G418 and 100 ng/mL puromycin. Individual clones were evaluated based on their response in the presence and absence of test ligands. Clone Z3 was selected for screening and SAR purposes.
Human 293 kidney cells stably transformed with CVBE and 6XEcRE lack were maintained in Minimum Essential Medium (Mediates, 10-010-CV) containing 10% FBS (Life Technologies, 26140-087), […] G418 (Mediates, 30-234-CR), and […] (Sigma, P-7255), at 37° C. in an atmosphere containing 5% CO2 and were subculture when they reached 75% confluence.
Z3 cells were seeded into 96-well tissue culture plates at a concentration of 2.5×10^3 cells per well and incubated at 37° C. in 5% CO2 for twenty-four hours. Stock solutions of ligands were prepared in DMSO. Ligand stock solutions were diluted 100 fold in media and 50 μL of this diluted ligand solution (33 μM) was added to cells. The final concentration of DMSO was maintained at […] in both controls and treatments.
Reporter gene expression was evaluated 48 hours after treatment of cells, β-galactosidase activity was measured using Gal Screen™ bioluminescent reporter gene assay system from Tropix (GSY1000).
Flanking both constructs are long terminal repeats, G418 and puromycin are selectable markers, CMV is the cytomegalovirus promoter, VBE is coding sequence for amino acids 26-546 from Bombyx mori EcR inserted downstream of the VP16 transactivation domain, 6×EcRE is six copies of the ecdysone response element, lacZ encodes for the reporter enzyme β-galactosidase. Suhr, S. T., Gil, E. B., Senut M. C., Gage, F. H. (1998) Proc. Natl. Acad. Sci. USA 95, 7999-804. Swevers, L., Drevet, J. R., Lunke, M. D., Iatrou, K. (1995) Insect Biochem. Mol. Biol. 25, 857-866.

[2] = molecular target: T2, GAL4 DBD-CfEcR(DEF)/VP16AD-MmRXRE (Choristoneura fumiferana, UniProt O77240); test: cell-based; conditions: for 13B3 Rel Max FI: maximum fold induction at any concentration relative to that of GS-E ligand; for fold induction at 33 µM: CHO, read-out: Fold Induction Average, 13B3 Assay (33 μM)
T2 sequence (O77240 1-513): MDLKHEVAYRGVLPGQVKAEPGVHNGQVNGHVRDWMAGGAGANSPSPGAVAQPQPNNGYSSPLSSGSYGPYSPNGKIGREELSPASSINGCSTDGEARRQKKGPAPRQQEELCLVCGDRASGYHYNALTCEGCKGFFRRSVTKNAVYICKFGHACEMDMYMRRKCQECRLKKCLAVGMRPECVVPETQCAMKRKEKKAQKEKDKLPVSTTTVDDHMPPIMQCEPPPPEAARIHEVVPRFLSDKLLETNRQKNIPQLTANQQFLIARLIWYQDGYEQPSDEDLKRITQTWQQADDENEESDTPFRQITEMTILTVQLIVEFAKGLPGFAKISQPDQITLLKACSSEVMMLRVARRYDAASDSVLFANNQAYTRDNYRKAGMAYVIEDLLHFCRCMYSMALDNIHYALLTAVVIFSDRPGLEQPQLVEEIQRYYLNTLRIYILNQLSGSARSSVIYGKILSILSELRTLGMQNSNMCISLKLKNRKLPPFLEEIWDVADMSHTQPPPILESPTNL
Source text: GAL4 DBD-CfEcR(DEF)/VP16AD-MmRXRE: The wild-type D, E, and F domains from spruce budworm Choristoneura fumiferana EcR (“CfEcR-DEF”; SEQ ID NO: 1) were fused to a GAL4 DNA binding domain (“Gal4 DBD1-147”; nucleotides 31 to 471 of SEQ ID NO: 2) and placed under the control of the SV40e promoter of pM vector (PT3119-5, Clontech, Palo Alto, Calif.). The D and E domains from Mus Musculus RXR (“MmRXR-DE”; SEQ ID NO: 10) were fused to the transactivation domain from VP16 (“VP16AD”; SEQ ID NO: 5) and placed under the control of the SV40e promoter of the pVP16 vector (PT3127-5, Clontech, Palo Alto, Calif.).
CHO cells were transienty transfected with transcription cassettes for GAL4 DBD-CfEcR(DEF) and for VP16AD-MmRXRE controlled by SV40e promoters. Stably transfected cells were selected using Hygromycin. Individually isolated CHO cell clones were transiently transfected with a GAL4 RE-luciferase reporter (pMR-Luc, Stratagene, La Jolla, Calif.). The 13B3 clone was selected using Zeocin.
Cells were trypsinized and diluted to a concentration of 2.5×10^4 cells mL. 100 μL of cell suspension was placed in each well of a 96 well plate and incubated at 37° C. under 5% CO2 for 24 h. Ligand stock solutions were prepared in DMSO and diluted 300 fold for all treatments. Dose response testing consisted of 8 concentrations ranging from 33 μM to 0.01 μM.
Luciferase reporter gene expression was measured 48 h after cell treatment using Bright-Glo™ Luciferase Assay System from Promega (E2650). Luminescence was detected at room temperature using a Dynex MLX microtiter plate luminometer.
Fold inductions were calculated from single dose testing by dividing relative light units (RLU) in ligand treated cells by RLU in DMSO treated cells. BC50s were calculated from dose response data using a three-parameter logistic model.

[3] = average; dose response, three-parameter logistic model; read-out: Z3 LC50
[4] = maximum fold induction at any concentration relative to that of GS-E ligand
[5] = single dose 33 μM; ligand treated / DMSO treated cells
[6] = read-out: Fold Induction Average, Z3 Assay (33 μM)
[7] = read-out: Z3 LC50; average; dose response, three-parameter logistic model

Row | SMILES | Fold Induction Average, Z3 Assay (33 μM) [1, 5] | Fold Induction Average, 13B3 Assay (33 μM) [2] | other results
1 | COc1cccc(C(=O)NC2(C(=O)c3ccccc3)CCCC2)c1C [Example 1] | 71 |  | CC50 [1, 3]: 2.67 µM; Z3 Rel Max FI [1, 4]: 0.14; 13B3 Rel Max FI [2]: 0.00; EC50 ([2]; read-out: 13B3 EC50, average, dose response, three-parameter logistic model): > 33 µM; Fold Induction Average, 13B3 Assay (33 μM) ([2]; single dose 33 μM, RLU ligand treated / RLU DMSO treated cells): 3
2 | COc1cccc(C(=O)NC2(C(=O)c3cccc(C)c3)CCCC2)c1C [Example 2] |  |  | Z3 Rel Max FI [1, 4]: 0.46; fold induction at 33 µM [1, 6]: 786; CC50 [1, 7]: 3.38 µM; EC50 [2]: > 33 µM; fold induction at 33 µM [2]: 2620; 13B3 Rel Max FI [2]: 0.24
3 | CCc1ccc(C(=O)NC2(C(=O)c3ccccc3)CCCC2)cc1 [Example 3] |  |  | EC50 [2]: > 33 µM; 13B3 Rel Max FI [2]: 0.00
4 | COc1cccc(C(=O)C2(NC(=O)c3cccc(OC)c3C)CCCC2)c1 [Example 5] |  |  | EC50 [2]: > 33 µM; 13B3 Rel Max FI [2]: 0.02
5 | COc1cccc(C(=O)NC2(C(=O)c3cccc(C)c3)CCC2)c1C [Example 6] |  |  | Z3 Rel Max FI [1, 4]: 0.05; fold induction at 33 µM [1, 6]: 82; CC50 [1, 7]: 10.7 µM; EC50 [2]: > 33 µM; fold induction at 33 µM [2]: 1; 13B3 Rel Max FI [2]: 0.00
6 | COc1cccc(C(=O)NC(C)(Cc2ccccc2)C(=O)c2cccc(C)c2)c1C (stereo not drawn) [Example 8] | 15 | 2 | 
7 | COc1cccc(C(=O)NC2(C(=O)c3cccc(C)c3)CC2)c1C [Example 9] | 12 | 0 | 
8 | COc1cccc(C(=O)NC(C)(Cc2ccccc2)C(=O)c2ccc(C)cc2)c1C (stereo not drawn) [Example 16] | 10 | 0 | 
9 | COc1cccc(C(=O)NC2(C(=O)c3ccc(F)c(C)c3)CC2)c1C [Example 19] | 6 | 0 | 
10 | Cc1c(C(=O)NC2(C(=O)c3ccccc3)CCCC2)ccc2c1OCO2 [Example 23] | 32 | 2 | 
11 | COc1cccc(C(=O)NC2(C(=O)c3ccc(C)cc3)CC2)c1C [Example 24] | 11 | 87 | 
12 | COc1cccc(C(=O)NC2(C(=O)c3cccc(C)c3)CCC3(CC2)OCCO3)c1C [Example 35] | 9 | 2 | 
13 | CCC(CC)(NC(=O)c1cccc(OC)c1C)C(=O)c1ccccc1C [Example 36] | 4 | 0 | 
14 | COc1cccc(C(=O)NC2(C(=O)c3ccccc3C)CCCC2)c1C [Example 39] | 30 | 24 | 
15 | COc1ccc(C(=O)C2(NC(=O)c3cccc(OC)c3C)CCCC2)cc1 [Example 41] | 4 | 2 | 
16 | COc1cccc(C(=O)NC2(C(=O)c3ccc4c(c3)OCO4)CCCC2)c1C [Example 43] | 3 | 2 | 
17 | COc1cccc(C(=O)NC2(C(=O)c3ccc4c(c3)OCO4)CCCCC2)c1C [Example 47] | 21 | 3 | 
18 | COc1cccc(C(=O)NC(C)(CC(C)C)C(=O)c2ccc(F)c(C)c2)c1C (stereo not drawn) [Example 54] | 41 | 0 | 
19 | COc1cccc(C(=O)NC(C(=O)c2cccc(C)c2)(c2ccccc2)C(C)C)c1C (stereo not drawn) [Example 57] | 8 | 0 | 
20 | CCC(CC)(NC(=O)c1cccc(OC)c1C)C(=O)c1ccc(OC)cc1 [Example 58] | 4 | 4 | 
21 | CCC(CC)(NC(=O)c1cccc(OC)c1C)C(=O)c1ccc2c(c1)OCO2 [Example 59] | 2 | 0 | 
22 | Cc1nc2ncc(C(=O)NC3(C(=O)c4ccccc4)CCCC3)c(C)n2n1 [Example 103] |  | 0 | 
23 | CCc1ccc(C(=O)NC2(C(=O)c3cc(C)cc(C)c3)CCCCC2)cc1 [Example 175] |  |  | CC50 [1, 3]: 1.51 µM; Z3 Rel Max FI [1, 4]: 0.63

Reference: patent publication US8129355B2, “Ketone ligands for modulating the expression of exogenous genes via an ecdysone receptor complex” (priority 2002, dated 2012)
